The compounds below were run on RS4;11 cells (assay: Cell growth inhibition, 4-day proliferation assay (WST-8)). Details: Homo sapiens, 96 h; RS4;11 cells, 4 days, WST-8; read-out: RS4; 11 Cells IC50.
Assay type: cell-based
Procedure: The effect of representative Compounds of the Disclosure on cell viability was determined in a 4-day proliferation assay. Cells were maintained in the appropriate culture medium with 10% FBS at 37° C. and an atmosphere of 5% CO2. Also, the effect of a MDM2 inhibitor (Cpd. A; see Compound Example No. 22 of U.S. Pat. No. 8,629,141) and a known MDM2 degrader (Cpd. D, see Cpd. No. 175 of WO 2017/0176957) on cell viability in various cell lines is also included in Table 5. Cpd. […] A and D. The structure of Cpd. A is:
Cells were seeded in 96-well flat bottom (Corning COSTAR, Corning, N.Y., cat #3595) at a density of 2,000-3,000 cells/well in 100 μL of culture medium. Compounds were serially diluted in the appropriate medium, and 100 μL of the diluted compounds were added to the appropriate wells of the cell plate. After the addition of compounds, the cells were incubated at 37° C. in an atmosphere of 5% CO2 for 4 days. Cell viability was determined using the WST (2-(2-methoxy-4-nitrophenyl)-3-(4-nitrophenyl)-5-(2,4-disulfophenyl)-2H-tetrazolium, monosodium salt) Cell Counting-8 Kit (Dojindo Molecular Technologies, Inc., Rockville, Md.) according to the manufacturers' instructions.
WST-8 reagent was added to each well at a final concentration of 10% (v/v), and then the plates were incubated at 37° C. for 1-2 hours for color development. The absorbance was measured at 450 nm using a SPECTRAmax PLUS plate reader (Molecular Devices, Sunnyvale, Calif.). The readings were normalized to the DMSO-treated cells and the half maximal inhibitory concentration (IC50) was calculated by nonlinear regression (four parameters sigmoid fitted with variable slope, least squares fit, and no constraint) analysis using the GraphPad Prism 5 software (GraphPad Software, La Jolla, Calif.).

Compound	IC50 [nM]
CN1[C@@H](C(=O)N[C@H]2CC[C@H](C(=O)N3CCC(C#Cc4cccc5c4CN(C4CCC(=O)NC4=O)C5=O)CC3)CC2)[C@H](c2cccc(Cl)c2F)[C@]2(C(=O)Nc3cc(Cl)ccc32)C12CCCCC2 (stereo partly drawn) [Cpd. No. 9, (3′R,4′S,5′R)-6″-chloro-4′-(3-chloro-2-fluorophenyl)-N-((1r,4R)-4-(4-((2-(2,6-dioxopiperidin-3-yl)-1-oxoisoindolin-4-yl)ethynyl)piperidine-1-carbonyl)cyclohexyl)-1′-methyl-2″-oxodispiro[cyclohexane-1,2′-pyrrolidine-3′,3″-indoline]-5′-carboxamide]	2.8
CN(C(=O)[C@@H]1NC2(CCCCC2)[C@@]2(C(=O)Nc3cc(Cl)ccc32)[C@H]1c1cccc(Cl)c1F)[C@H]1CC[C@H](C(=O)N2CCC(C#Cc3cccc4c3CN(C3CCC(=O)NC3=O)C4=O)CC2)CC1 (stereo partly drawn) [Cpd. No. 15, (3′R,4′S,5′R)-6″-chloro-4′-(3-chloro-2-fluorophenyl)-N-((1r,4R)-4-(4-((2-(2,6-dioxopiperidin-3-yl)-1-oxoisoindolin-4-yl)ethynyl)piperidine-1-carbonyl)cyclohexyl)-N-methyl-2″-oxodispiro[cyclohexane-1,2′-pyrrolidine-3′,3″-indoline]-5′-carboxamide]	60
O=C1CCC(N2Cc3c(C#CC4CCN(C(=O)C5CCN(C(=O)[C@@H]6NC7(CCCCC7)[C@@]7(C(=O)Nc8cc(Cl)ccc87)[C@H]6c6cccc(Cl)c6F)CC5)CC4)cccc3C2=O)C(=O)N1 (stereo partly drawn) [Cpd. No. 23, 3-(4-((1-(1-((3′R,4′S,5′R)-6″-chloro-4′-(3-chloro-2-fluorophenyl)-2″-oxodispiro[cyclohexane-1,2′-pyrrolidine-3′,3″-indoline]-5′-carbonyl)piperidine-4-carbonyl)piperidin-4-yl)ethynyl)-1-oxoisoindolin-2-yl)piperidine-2,6-dione]	> 100
O=C1CCC(N2Cc3c(C#CC4CCN(C(=O)CN5CCC(NC(=O)[C@@H]6NC7(CCCCC7)[C@@]7(C(=O)Nc8cc(Cl)ccc87)[C@H]6c6cccc(Cl)c6F)CC5)CC4)cccc3C2=O)C(=O)N1 (stereo partly drawn) [Cpd. No. 5, (3′R,4′S,5′R)-6″-chloro-4′-(3-chloro-2-fluorophenyl)-N-(1-(2-(4-((2-(2,6-dioxopiperidin-3-yl)-1-oxoisoindolin-4-yl)ethynyl)piperidin-1-yl)-2-oxoethyl)piperidin-4-yl)-2″-oxodispiro[cyclohexane-1,2′-pyrrolidine-3′,3″-indoline]-5′-carboxamide]	3.1
CC(C)(C)C[C@@H]1N[C@@H](C(=O)NC23CCC(C(=O)N4CCC(C#Cc5cccc6c5CN(C5CCC(=O)NC5=O)C6=O)CC4)(CC2)CC3)[C@H](c2cccc(Cl)c2F)[C@@]1(C#N)c1ccc(Cl)cc1F (stereo partly drawn) [Cpd. No. 38]	56
O=C1CCC(N2Cc3c(C#CC4CCN(C(=O)[C@H]5C[C@H](NC(=O)[C@@H]6NC7(CCCCC7)[C@@]7(C(=O)Nc8cc(Cl)ccc87)[C@H]6c6cccc(Cl)c6F)C5)CC4)cccc3C2=O)C(=O)N1 (stereo partly drawn) [Cpd. No. 12, (3′R,4′S,5′R)-6″-chloro-4′-(3-chloro-2-fluorophenyl)-N-((1r,3R)-3-(4-((2-(2,6-dioxopiperidin-3-yl)-1-oxoisoindolin-4-yl)ethynyl)piperidine-1-carbonyl)cyclobutyl)-2″-oxodispiro[cyclohexane-1,2′-pyrrolidine-3′,3″-indoline]-5′-carboxamide]	1.4
O=C1CCC(N2Cc3c(C#CCCCNC(=O)[C@H]4CC[C@H](NC(=O)[C@@H]5NC6(CCCCC6)[C@@]6(C(=O)Nc7cc(Cl)ccc76)[C@H]5c5ccccc5)CC4)cccc3C2=O)C(=O)N1 (stereo partly drawn) [Cpd. No. 27, (3′R,4′R,5′R)-6″-chloro-N-((1r,4R)-4-((5-(2-(2,6-dioxopiperidin-3-yl)-1-oxoisoindolin-4-yl)pent-4-yn-1-yl)carbamoyl)cyclohexyl)-2″-oxo-4′-phenyldispiro[cyclohexane-1,2′-pyrrolidine-3′,3″-indoline]-5′-carboxamide]	> 100

Results, then the compound that gave them:

IC50 [nM]	Compound
4.5	CC1(C)CCC2(CC1)N[C@@H](C(=O)NC1CCN(CC(=O)NCCCC#Cc3cccc4c3CN(C3CCC(=O)NC3=O)C4=O)CC1)[C@H](c1cccc(Cl)c1F)[C@]21C(=O)Nc2cc(Cl)ccc21 (stereo partly drawn) [Cpd. No. 8, (3′R,4′S,5′R)-6″-chloro-4′-(3-chloro-2-fluorophenyl)-N-(1-(2-((5-(2-(2,6-dioxopiperidin-3-yl)-1-oxoisoindolin-4-yl)pent-4-yn-1-yl)amino)-2-oxoethyl)piperidin-4-yl)-4,4-dimethyl-2″-oxodispiro[cyclohexane-1,2′-pyrrolidine-3′,3″-indoline]-5′-carboxamide]
> 100	CCN1[C@@H](C(=O)N2CCC(C(=O)N3CCC(C#Cc4cccc5c4CN(C4CCC(=O)NC4=O)C5=O)CC3)CC2)[C@H](c2cccc(Cl)c2F)[C@]2(C(=O)Nc3cc(Cl)ccc32)C12CCCCC2 (stereo partly drawn) [Cpd. No. 22, 3-(4-((1-(1-((3′R,4′S,5′R)-6″-chloro-4′-(3-chloro-2-fluorophenyl)-1′-ethyl-2″-oxodispiro[cyclohexane-1,2′-pyrrolidine-3′,3″-indoline]-5′-carbonyl)piperidine-4-carbonyl)piperidin-4-yl)ethynyl)-1-oxoisoindolin-2-yl)piperidine-2,6-dione]
0.62	CC(C)(C)C[C@@H]1N[C@@H](C(=O)N[C@H]2CC[C@H](C(=O)NCCCC#Cc3cccc4c3CN(C3CCC(=O)NC3=O)C4=O)CC2)[C@H](c2cccc(Cl)c2F)[C@]12C(=O)Nc1cc(Cl)ccc12 (stereo partly drawn) [Cpd. No. 3, (2′S,3R,4′S,5′R)-6-chloro-4′-(3-chloro-2-fluorophenyl)-N-((1r,4R)-4-((5-(2-(2,6-dioxopiperidin-3-yl)-1-oxoisoindolin-4-yl)pent-4-yn-1-yl)carbamoyl)cyclohexyl)-2′-neopentyl-2-oxospiro[indoline-3,3′-pyrrolidine]-5′-carboxamide]
> 100	COc1cc(C(=O)N2CCC(C#Cc3cccc4c3CN(C3CCC(=O)NC3=O)C4=O)CC2)ccc1NC(=O)[C@@H]1NC2(CCCCC2)[C@@]2(C(=O)Nc3cc(Cl)ccc32)[C@H]1c1cccc(Cl)c1F (stereo partly drawn) [Cpd. No. 28, (3′R,4′S,5′R)-6″-chloro-4′-(3-chloro-2-fluorophenyl)-N-(4-(4-((2-(2,6-dioxopiperidin-3-yl)-1-oxoisoindolin-4-yl)ethynyl)piperidine-1-carbonyl)-2-methoxyphenyl)-2″-oxodispiro[cyclohexane-1,2′-pyrrolidine-3′,3″-indoline]-5′-carboxamide]
> 100	CN1[C@@H](C(=O)N(C)[C@H]2CC[C@H](C(=O)N3CCC(C#Cc4cccc5c4CN(C4CCC(=O)NC4=O)C5=O)CC3)CC2)[C@H](c2cccc(Cl)c2F)[C@]2(C(=O)Nc3cc(Cl)ccc32)C12CCCCC2 (stereo partly drawn) [Cpd. No. 16, (3′R,4′S,5′R)-6″-chloro-4′-(3-chloro-2-fluorophenyl)-N-((1r,4R)-4-(4-((2-(2,6-dioxopiperidin-3-yl)-1-oxoisoindolin-4-yl)ethynyl)piperidine-1-carbonyl)cyclohexyl)-N,1′-dimethyl-2″-oxodispiro[cyclohexane-1,2′-pyrrolidine-3′,3″-indoline]-5′-carboxamide]
8	CN1[C@@H](C(=O)NC23CCC(C(=O)N4CCC(C#Cc5cccc6c5CN(C5CCC(=O)NC5=O)C6=O)CC4)(CC2)CC3)[C@H](c2cccc(Cl)c2F)[C@]2(C(=O)Nc3cc(Cl)ccc32)C12CCCCC2 (stereo partly drawn) [Cpd. No. 10, (3′R,4′S,5′R)-6″-chloro-4′-(3-chloro-2-fluorophenyl)-N-(4-(4-((2-(2,6-dioxopiperidin-3-yl)-1-oxoisoindolin-4-yl)ethynyl)piperidine-1-carbonyl)bicyclo[2.2.2]octan-1-yl)-1 ′-methyl-2″-oxodispiro[cyclohexane-1,2′-pyrrolidine-3′,3″-indoline]-5′-carboxamide]
6.6	CCN1[C@@H](C(=O)Nc2ccc(C(=O)N3CCC(C#Cc4cccc5c4CN(C4CCC(=O)NC4=O)C5=O)CC3)cc2)[C@H](c2cccc(Cl)c2F)[C@]2(C(=O)Nc3cc(Cl)ccc32)C12CCCCC2 (stereo partly drawn) [Cpd. No. 24, (3′R,4′S,5′R)-6″-chloro-4′-(3-chloro-2-fluorophenyl)-N-(4-(4-((2-(2,6-dioxopiperidin-3-yl)-1-oxoisoindolin-4-yl)ethynyl)piperidine-1-carbonyl)phenyl)-1′-ethyl-2″-oxodispiro[cyclohexane-1,2′-pyrrolidine-3′,3″-indoline]-5′-carboxamide]
1.3	O=C1CCC(N2Cc3c(C#CC4CN(C(=O)[C@H]5CC[C@H](NC(=O)[C@@H]6NC7(CCCCC7)[C@@]7(C(=O)Nc8cc(Cl)ccc87)[C@H]6c6cccc(Cl)c6F)CC5)C4)cccc3C2=O)C(=O)N1 (stereo partly drawn) [Cpd. No. 32, (3′R,4′S,5′R)-6″-chloro-4′-(3-chloro-2-fluorophenyl)-N-(4-(3-((2-(2,6-dioxopiperidin-3-yl)-1-oxoisoindolin-4-yl)ethynyl)azetidine-1-carbonyl)cyclohexyl)-2″-oxodispiro[cyclohexane-1,2′-pyrrolidine-3′,3″-indoline]-5′-carboxamide]

— patent US20210309666A1, “SMALL MOLECULE MDM2 PROTEIN DEGRADERS” (THE REGENTS OF THE UNIVERSITY OF MICHIGAN, priority 2018, published 2021)
